One assay concerns C57bl/6J Mice. The assay is described as follows: GPR120 C57bl6 mouse IPGTT. It is filed as in vivo. To be noted: 3 mg/kg, dosed 30 min prior to glucose IP 1.5 g/kg. On the procedure: (§1) Male, C57bl/6J Mice were ordered in at 8 weeks of age from Jackson Labs. Individual mice weighed anywhere in the range of 25-30 grams on study day. The mice were fasted, with removal of food occurring at 7 am on the morning of the study. Animals were moved into the room at 10:00 am, to give them time to acclimate. Glucose (insulin syringes) was drawn up either the night before or the morning of the study. Glucose was dosed (IP) at 1.5 g/kg at 7.5 ml/kg (20% glucose straight TEKNOVA, 250 ml sterile bottle w/ catalogue number G0525). Test compounds were kept spinning and were only drawn into the syringes prior to study commencement. Animals were bled via tail snip to determine basal glucose levels prior to dosing of treatments. An Ascensia BREEZE Blood Glucose Monitoring System by Bayer (using unique 10-test disks) was used for determining glucose levels. The bleeds started at approximately 12:45 pm and dosing started, at 1-minute intervals, immediately after. All groups were dosed 30 minutes prior to glucose administration at a dose volume of 10 ml/kg (the dose volume was calculated separately for each individual animal). Thirty minutes after the first dose animals were bled again for a second baseline, or T=0, and immediately dosed with glucose via an i.p. injection. The exact dose volume for glucose was also calculated separately for each individual animal. Glucose measurements were taken at −30 min prior to compound dose, at t=0 (immediately prior to glucose dose), and at 15, 30, 45, 60, 90 min post glucose dose.
(§2) Glucose values were entered into an Excel sheet and graphed in GraphPad Prism. The following were calculated from Prism: Change from −30 to 0 BSLN Glucose, Raw Glucose AUC −30 to 90 min, Delta Glucose AUC −30 to 90 min, Raw Glucose AUC 0 to 90 min, Delta Glucose AUC 0 to 90 min.

The test system of assay [1] is C57B16 mice on a high fat diet. As to the kind of experiment: GPR120 DIO mice OGTT screening. The format is in vivo, mouse. To be noted: dosed 30 min prior to glucose PO. On the procedure:
18-22 week old, C57B16 mice on a high fat diet (60% HFD) for 12-16 weeks (ave. body weight ˜37-41 g) were fasted for 6 hr, with removal of food occurring at 7 am on the morning of the study. The animals were sorted into treatment groups the day before the study by body weight. Animals outside the bounds of ˜30-50 g were left out of the study. The animals had been handled and shammed a total of 5-8 days (1-3 days immediately prior to the study). Glucose (in 1 mL syringes) was drawn up the morning of the study. Test compounds were kept spinning and were only drawn into 1 ml syringes prior to study commencement. Animals were bled via tail snip to determine basal glucose levels prior to dosing of treatments. An Ascensia BREEZE Blood Glucose Monitoring System by Bayer was used for determining glucose levels.
Animals were moved into the testing room at ˜9-11 am, to yield them time to acclimate. The bleeds and dosing started at approximately 1 pm in 30-second intervals per animal. All groups were dosed 30 minutes prior to glucose administration at a dose volume of 10 ml/kg (the dose volume was calculated separately for each individual animal). Test compounds were administered at one or more of the following dosages: 0.1 mg/kg, 0.3 mg/kg, 1 mg/kg, 3 mg/kg and 10 mg/kg.
Thirty minutes after the first dose (with test compound) animals were bled again for a second baseline, or T=0, and immediately dosed with glucose (20% solution; TEKNOVA, 250 ml sterile bottle w/ catalogue number G0525) via a PO injection. The exact dose volume for glucose was also calculated separately for each individual animal.
Blood glucose was measured at 15, 30, 45, 60, and 90 minutes post-glucose administration via the snipped tail. If an animal reached a value of “HI”, the upper limit of the glucometer (600 mg/dl) was substituted as the blood glucose value and the study was analyzed as normal with no exclusions. If 50% or more of any treatment group reaches a “HI” value at least once, the study was considered invalid and repeated. Glucose values were typed into an EXCEL spreadsheet where they were used to calculate glucose AUC and delta AUC post-compound and post-glucose. The glucose excursion curves and the different versions of the AUC's were graphed in GraphPad Prism 5.
Note: All statistics completed in this study were completed using the statistical software package GraphPad Prism 5. Standard procedures for analyzing data sets from screening GPR120 compounds in DIO mouse OGTT's were as listed here below. In addition to the statistics that were run using GraphPad Prism 5, Microsoft Excel was used to calculate the percent changes in AUC from vehicle groups as detailed below.
Change from −30 to 0 BSLN Glucose, Raw Glucose AUC −30 to 90 min, Delta Glucose AUC −30 to 90 min, Raw Glucose AUC 0 to 90 min, Delta Glucose AUC 0 to 90 min were analyzed using Column Statistics Analysis, with mean values used to calculate % change from the vehicle mean group, as well as mean, SEM and/or % change from vehicle, where appropriate; and using One-Way ANOVA w/ a Tukey Post-Test (Comparing All Pairs of Columns) with each treatment group examined to see if it was statistically significant compared to vehicle (*=P<0.05, **=P<0.01, ***=P<0.001).

For another assay, the system named is C57b16 mouse. The assay is described as follows: C57b16 mouse OGTT. It is filed as in vivo. To be noted: dosed 30 min prior to glucose PO 3 g/kg. On the procedure: as §1, §2
The assay design is the same as that described above for the C57b16 mouse IPGTT. The difference is that glucose was dosed PO at 3 g/kg, 7.5 ml/kg of 40% glucose.

The values below come from patent publication US10118922B2 (Janssen Pharmaceutica NV, priority 2013, dated 2018).

On to `O=C(O)CCc1cc(F)c(OCc2c(C3CCCC3)nsc2C(F)(F)F)c(F)c1` [Cpd 71, 3-(4-[[3-cyclopentyl-5-(trifluoromethyl)-1,2-thiazol-4-yl]methoxy]-3,5-difluorophenyl)propanoic acid], for which the “C57 IPGTT 3 mg/kg” value with C57bl/6J Mice is on record as −14. For the same compound, the “DIO Lowering Glucose AUC (−30 to 90) @ 10 mg/kg” value in assay [1] was −0.52. Besides, the “C57 OGTT 3 mg/kg” value with C57b16 mouse is reported as −37.
